The nature of series [1]: Lipophilicity determination using RP-HPLC (capacity factor, log k). The series is classed as physicochemical. The settings on record: C18, MeOH 55%/H2O 45%. In short, it runs like this: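 Isocratic RP-HPLC on a C18 column (5 μm, 4.6 × 250 mm), 55% MeOH/45% water at 0.9 mL/min, 30 °C, UV detection 210 nm. Dead time from KI; capacity factor k = (tR − tD)/tD, with log k taken as the lipophilicity index on log P scale.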

The test system of series [2] is Candida albicans ATCC 44859. Description: In vitro antifungal susceptibility, broth microdilution. The format is cell-based. The settings on record: read-out: MIC (IC80) CA. Background: Broth dilution looks for growth in wells or tubes with falling amounts of substance.
The test system of another series is Candida tropicalis 156. The series is described as above. Particulars: read-out: MIC (IC80) CT. The series is classed as cell-based.
In the next series the test system is Absidia corymbifera 272. The description is as above. The format is cell-based. The settings on record: read-out: MIC (IC50) AC.
Another series deals with Candida krusei ATCC 6258. The series is described as above. The settings on record: Pichia kudriavzevii, read-out: MIC (IC80) CK. The format is cell-based.
Series [3] concerns photosynthetic electron transport (PET) in spinach chloroplasts. The series is described as follows: Inhibition of photosynthetic electron transport (PET) in spinach chloroplasts. The settings on record: DCPIP photoreduction. The format is biochemical, Spinacia oleracea L. In outline: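 PET in spinach chloroplasts was followed spectrophotometrically as DCPIP photoreduction in pH 7.2 phosphate buffer with sucrose, MgCl2 and NaCl, at 30 mg/L chlorophyll, under halogen-lamp irradiation at 22 °C. Compounds were added in DMSO. IC50 is the molar concentration halving the rate relative to untreated control.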

The subject of series [4] is Trichosporon beigelii 1188. The series is described as follows: In vitro antifungal susceptibility, broth microdilution. The settings on record: read-out: MIC (IC80) TB. The series is classed as cell-based. In outline: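 Twofold dilutions (500 to 0.975 μmol/L final) in RPMI 1640 with MOPS, pH 7.0, per CLSI broth microdilution. MIC taken as IC80 for yeasts (M27-A2) or IC50 for moulds (M38-A) versus drug-free control, read after 24 and 48 h static incubation at 35 °C.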

Series [5] concerns Aspergillus fumigatus 231. The series is described as above. The format is cell-based. Particulars: read-out: MIC (IC50) AF.
The subject of another series is Candida glabrata 20/I. Described as above. The series is classed as cell-based. The settings on record: Nakaseomyces glabratus, read-out: MIC (IC80) CG.
Series [6] has as its system Trichophyton mentagrophytes 445. The series is described as above. Particulars: read-out: MIC (IC50) TM. The format is cell-based.
For series [7], the system named is HCT-116 human colon cancer cells (p53 wild type). On the set-up: method as in PMID 22858101. The settings on record: footnote 3: anticancer activity described elsewhere ref [34],[44]; cited from earlier work.

≈ marks a conversion by molar mass, not a printed value. Read-outs that look alike come from different tables or passages of the source. Bounds are passed on as bounds.

For orientation: MIC means the lowest concentration found to suppress growth. For orientation: IC50 means the concentration needed to halve the response being measured.

`CNC(=S)NN=Cc1ccc2cccc(O)c2n1` [Compound 4e] had a log k in series [1] of 0.6236. The MIC in [2] (ATCC44859, 24 h and 48 h, only one value presented (inactive)) was greater than 125 µM; with Candida tropicalis 156 (Candida tropicalis, 156, 24 h and 48 h, only one value presented (inactive)), greater than 125 µM; in the series with Candida krusei ATCC 6258 (ATCC6258, 24 h and 48 h, only one value presented (inactive)) it was greater than 125 µM; in series [4] (Trichosporon beigelii, 1188, 24 h and 48 h, only one value presented (inactive)), greater than 125 µM; in the series with Candida glabrata 20/I (24 h and 48 h, only one value presented (inactive)), greater than 125 µM. Besides, the IC50 in the series on Absidia corymbifera 272 (Lichtheimia corymbifera, 272, 24 h and 48 h, only one value presented (inactive)) is greater than 125 µM; in [3], 302 µM; in series [5] (Aspergillus fumigatus, 231, 24 h and 48 h, only one value presented (inactive)) it was greater than 125 µM; in series [6] (Trichophyton mentagrophytes, 445, 72 h and 120 h, only one value presented (inactive)) it was greater than 125 µM; in [7] it was 1.71 ± 0.34 µM.
`CN(C)C(=S)NN=Cc1c(O)ccc2cccnc12` [Compound 4j] yielded a log k in [1] of 0.5831. Further, the MIC in [2] (ATCC44859, 24 h) is 125 µM (≈ 34.3 µg/mL); in series [2] (ATCC44859, 48 h), greater than 250 µM; with Candida tropicalis 156 (Candida tropicalis, 156, 24 h), greater than 250 µM; in the series on Candida tropicalis 156 (Candida tropicalis, 156, 48 h), greater than 250 µM; in the series with Candida krusei ATCC 6258 (ATCC6258, 24 h), greater than 250 µM; in the series on Candida krusei ATCC 6258 (ATCC6258, 48 h) it was greater than 250 µM. In addition, the MIC is 125 µM (≈ 34.3 µg/mL) in [4] (Trichosporon beigelii, 1188, 24 h); greater than 250 µM in [4] (Trichosporon beigelii, 1188, 48 h); 125 µM (≈ 34.3 µg/mL) in the series on Candida glabrata 20/I (24 h); 125 µM (≈ 34.3 µg/mL) with Candida glabrata 20/I (48 h). For the same compound, the IC50 was greater than 250 µM in the series on Absidia corymbifera 272 (Lichtheimia corymbifera, 272, 24 h); greater than 250 µM in the series with Absidia corymbifera 272 (Lichtheimia corymbifera, 272, 48 h); 520 µM in [3]; greater than 250 µM in series [5] (Aspergillus fumigatus, 231, 24 h); greater than 250 µM in series [5] (Aspergillus fumigatus, 231, 48 h); 125 µM in series [6] (Trichophyton mentagrophytes, 445, 72 h). Besides, the IC50 in series [6] (Trichophyton mentagrophytes, 445, 120 h) is 125 µM; in series [7], 20.8 ± 5.34 µM.

The record behind these values is PMC6268061, “Investigation of the Biological Properties of (Hetero)Aromatic Thiosemicarbazones” (Molecules, 2012).
